Read-outs that look alike come from different tables or passages of the source.
How the values were obtained:
FaDu cells = test: IC50 assay (inhibition of proliferation, 4 h exposure, SRB); type: cell-based; conditions: for IC50: Homo sapiens, 4 h
Experimental: Cells were seeded in 96-well plates (SiHa or FaDu 1500 cells/well, UT-SCC-74B 800 cells/well) in 100 μL. After incubation for 2 h, the drugs were added in 50 μL of the same titrated medium at 3× the final concentration to duplicate the wells. After a further 4 h the plates were checked for drug precipitation using a phase contrast microscope, then drugs were removed by aspirating and washing with the standard (pH 7.4) medium, then aspirating again and adding 150 μL of the medium. Cultures were then grown for 5 days before staining with sulphorhodamine B and measuring absorbance, with the estimation of IC50 values using 4-parameter logistic regression, as previously carried out [85].

[1] = Solubility in AlphaMEM + 5% FBS, pH 7.4; conditions: culture medium (AlphaMEM + 5% FBS), pH 7.4, plasma or biological fluid
SiHa cells = test: IC50 assay (inhibition of proliferation, 4 h exposure, SRB); conditions: SiHa; for IC50: Homo sapiens, 4 h
Experimental: Cells were seeded in 96-well plates (SiHa or FaDu 1500 cells/well, UT-SCC-74B 800 cells/well) in 100 μL. After incubation for 2 h, the drugs were added in 50 μL of the same titrated medium at 3× the final concentration to duplicate the wells. After a further 4 h the plates were checked for drug precipitation using a phase contrast microscope, then drugs were removed by aspirating and washing with the standard (pH 7.4) medium, then aspirating again and adding 150 μL of the medium. Cultures were then grown for 5 days before staining with sulphorhodamine B and measuring absorbance, with the estimation of IC50 values using 4-parameter logistic regression, as previously carried out.
The medium and plasticware was equilibrated in the chamber for 3 days prior to use. In the anoxia experiments, FaDu cells were plated in poly-L-lysine coated plates (Corning Cat # 356461) to improve attachment.
Cells were subsequently grown under standard cell culture conditions (oxia, pHe 7.4) for 5 days before staining with sulforhodamine B (SRB). […] (B) SN30000 (2). (C) BTO acid 4a. Values are means and errors are ranges for duplicate cultures in a single experiment. Fitted curves are 4-parameter logistic regressions. PCR = pH cytotoxicity ratio. ACR = anoxia cytotoxicity ratio. TMR = tumor microenvironment ratio.

[2] = pHe 6.5, 4 h, anoxic, read-out: Anoxic IC50
[3] = pHe 6.5, 4 h, oxic, read-out: Oxic IC50
[4] = pHe 7.4, 4 h, anoxic, read-out: Anoxic IC50
[5] = pHe 7.4, 4 h, oxic, read-out: Oxic IC50
[6] = read-out: Anoxic IC50, SiHa, pHe 6.5, 4 h, anoxic
[7] = read-out: Anoxic IC50, SiHa, pHe 7.4, 4 h, anoxic
[8] = read-out: Oxic IC50, SiHa, pHe 6.5, 4 h, oxic
[9] = read-out: Oxic IC50, SiHa, pHe 7.4, 4 h, oxic

SMILES | solubility ([1]; thermodynamic from solid) | solubility ([1]; kinetic from dmso stock) | TMR (oxic IC50 pHe 7.4/anoxic IC50 pHe 6.5) (FaDu cells) | IC50 (FaDu cells; [2]) | IC50 (FaDu cells; [3]) | IC50 (FaDu cells; [4]) | IC50 (FaDu cells; [5]) | PCR Anoxic (IC50 at pHe 7.4/IC50 at pHe 6.5) (FaDu cells; anoxic) | PCR oxic (IC50 at pHe 7.4/IC50 at pHe 6.5) (FaDu cells; oxic) | ACR (oxic IC50/anoxic IC50) (FaDu cells; pHe 6.5) | ACR (oxic IC50/anoxic IC50) (FaDu cells; pHe 7.4) | IC50 (SiHa cells; [6]) | IC50 (SiHa cells; [7]) | IC50 (SiHa cells; [8]) | IC50 (SiHa cells; [9]) | TMR (overall TME ratio = oxic IC50 pHe 7.4/anoxic IC50 pHe 6.5) (SiHa cells) | PCR Anoxic (IC50 at pHe 7.4/IC50 at pHe 6.5) (SiHa cells) | PCR oxic (IC50 at pHe 7.4/IC50 at pHe 6.5) (SiHa cells) | ACR (anoxic cytotoxicity ratio = oxic IC50/anoxic IC50) (SiHa cells; pHe 6.5) | ACR (anoxic cytotoxicity ratio = oxic IC50/anoxic IC50) (SiHa cells; pHe 7.4) | further results
CCOC(=O)CNc1n[n+]([O-])c2ccccc2[n+]1[O-] [Compound 8b, Ethyl [(1,4-Dioxido-1,2,4-benzotriazin-3-yl)amino]acetate] | 8600 µM | – | 11.2 ± 2.9 | 8.55 ± 1.92 µM | 76.1 ± 17.9 µM | 5.25 ± 1.18 µM | 102 ± 9 µM | 0.61 ± 0.02 | 1.34 ± 0.33 | 8.89 ± 2.89 | 19.3 ± 4.7 | 2.5 ± 0.87 µM | 1.2 ± 0.35 µM | 21.6 ± 5.7 µM | 35.3 ± 3.1 µM | 14.1 ± 5.1 | 0.48 ± 0.22 | 1.63 ± 0.45 | 8.6 ± 3.8 | 29.4 ± 8.9 | –
COC(=O)CCNc1n[n+]([O-])c2cc3c(cc2[n+]1[O-])CCC3 [Compound 10b, 3-((3-Methoxy-3-oxopropyl)amino)-7,8-dihydro-6H-indeno[5,6-e][1,2,4]triazine 1,4-Dioxide] | 350 µM | – | 7.31 ± 1.08 | 40 ± 5.8 µM | 262 ± 29 µM | 43.7 ± 12.1 µM | 292 ± 8 µM | 1.09 ± 0.34 | 1.11 ± 0.13 | 6.56 ± 1.19 | 6.69 ± 1.86 | 21 ± 4.2 µM | 20.4 ± 4.8 µM | 208 ± 26 µM | 249 ± 50 µM | 11.9 ± 3.4 | 0.97 ± 0.30 | 1.20 ± 0.28 | 9.90 ±2.34 | 12.2 ± 3.8 | –

Now from value to compound, other results behind:

solubility ([1]; thermodynamic from solid) | solubility ([1]; kinetic from dmso stock) | SMILES | TMR (oxic IC50 pHe 7.4/anoxic IC50 pHe 6.5) (FaDu cells) | IC50 (FaDu cells; [2]) | IC50 (FaDu cells; [3]) | IC50 (FaDu cells; [4]) | IC50 (FaDu cells; [5]) | PCR Anoxic (IC50 at pHe 7.4/IC50 at pHe 6.5) (FaDu cells; anoxic) | PCR oxic (IC50 at pHe 7.4/IC50 at pHe 6.5) (FaDu cells; oxic) | ACR (oxic IC50/anoxic IC50) (FaDu cells; pHe 6.5) | ACR (oxic IC50/anoxic IC50) (FaDu cells; pHe 7.4) | IC50 (SiHa cells; [6]) | IC50 (SiHa cells; [7]) | IC50 (SiHa cells; [8]) | IC50 (SiHa cells; [9]) | TMR (overall TME ratio = oxic IC50 pHe 7.4/anoxic IC50 pHe 6.5) (SiHa cells) | PCR Anoxic (IC50 at pHe 7.4/IC50 at pHe 6.5) (SiHa cells) | PCR oxic (IC50 at pHe 7.4/IC50 at pHe 6.5) (SiHa cells) | ACR (anoxic cytotoxicity ratio = oxic IC50/anoxic IC50) (SiHa cells; pHe 6.5) | ACR (anoxic cytotoxicity ratio = oxic IC50/anoxic IC50) (SiHa cells; pHe 7.4) | further results
– | 1400 µM | CCOC(=O)CCCNc1n[n+]([O-])c2ccccc2[n+]1[O-] [Compound 11b, 3-((4-Ethoxy-4-oxobutyl)amino)benzo[e][1,2,4]triazine 1,4-Dioxide] | 10.1 ± 3.0 | 36.3 ± 4.8 µM | 274 ± 210 µM | 29 ± 2 µM | 368 ± 98 µM | 0.80 ± 0.12 | 1.34 ± 1.09 | 7.55 ± 5.87 | 12.7 ± 3.5 | 4.36 ± 0.56 µM | 3.55 ± 0.7 µM | 13.2 ± 0.9 µM | 14.5 ± 0.6 µM | 3.32 ± 0.45 | 0.81 ± 0.19 | 1.10 ± 0.09 | 3.04 ±0.44 | 4.08 ±0.82 | –
– | > 890 µM | Cc1ccc2c(c1)[n+]([O-])nc(NCCCC(=O)O)[n+]2[O-] [Compound 12a, 3-((3-Carboxypropyl)amino)-7-methylbenzo[e][1,2,4]triazine 1,4-Dioxide] | >1 | 271 ± 53 µM | > 300 µM | > 300 µM | > 300 µM | >1 | – | >1 | – | 234 ± 17 µM | > 300 µM | > 300 µM | > 300 µM | >1 | >1 | – | >1 | – | –
– | 160 µM | CCOC(=O)CCCNc1n[n+]([O-])c2cc(C)ccc2[n+]1[O-] [Compound 12b, 3-((4-Ethoxy-4-oxobutyl)amino)-7-methylbenzo[e][1,2,4]triazine 1,4-Dioxide] | – | – | – | – | – | – | – | – | – | – | – | – | – | – | – | – | – | – | melting point: 191 to 192 °C

Source: PMC6680510, “Benzotriazine Di-Oxide Prodrugs for Exploiting Hypoxia and Low Extracellular pH in Tumors” (Molecules, 2019)
